Results taken from patent US20050085447A1, “Pyrido[3,4-d]pyrimidine derivatives as matrix metalloproteinase-13 inhibitors” (Warner-Lambert Company LLC, priority 2003, published 2005).

Tests used:
MMP-1 full-length = biological target: T1, MMP-1 full-length (Homo sapiens, UniProt P03956); experiment: Thiopeptolide substrate hydrolysis inhibition assay, MMP-1 full-length; type: biochemical; details: full-length enzyme; read-out: MMP-1FL IC50
T1 construct: have also been assayed with MMP-1 full-length
T1 sequence (P03956 100-469): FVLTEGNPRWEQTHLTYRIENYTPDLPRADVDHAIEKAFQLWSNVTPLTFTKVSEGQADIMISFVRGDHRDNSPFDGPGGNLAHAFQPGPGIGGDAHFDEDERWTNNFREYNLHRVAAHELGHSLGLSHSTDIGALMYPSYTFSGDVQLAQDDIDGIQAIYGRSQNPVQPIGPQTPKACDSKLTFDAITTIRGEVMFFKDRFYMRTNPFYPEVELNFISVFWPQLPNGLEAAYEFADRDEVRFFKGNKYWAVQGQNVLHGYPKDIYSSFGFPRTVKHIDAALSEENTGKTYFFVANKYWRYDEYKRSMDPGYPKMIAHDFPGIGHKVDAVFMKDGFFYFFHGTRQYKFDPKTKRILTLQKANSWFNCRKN
From the text: (§1) The assay methods of Biological Examples 1-4 measure the amount by which a test compound reduces the hydrolysis of a thiopeptolide substrate catalyzed by a matrix metalloproteinase enzyme or catalytic domain thereof. It has been shown previously by Ye Qi-Zhuang, Hupe D., and Johnson L. (Current Medicinal Chemistry, 1996;3:407-418) that inhibitor activity against a catalytic domain of an MMP is predictive of the inhibitor activity against the respective full-length MMP enzyme. The methods described below for the inhibition of MMP-13 may also be adapted and used to determine the ability of the compounds of Formula I to inhibit other matrix metalloproteases such as MMP-1, MMP-2, MMP-3, MMP-7, MMP-8, MMP-9, MMP-12, MMP-14, MMP-17, and the like.
(§2) Thiopeptolide substrates show virtually no decomposition or hydrolysis at or below neutral pH in the absence of a matrix metalloproteinase enzyme. A typical thiopeptolide substrate commonly utilized for assays is Ac-Pro-Leu-Gly-thioester-Leu-Leu-Gly-OEt. A 100 μL assay mixture will contain 50 mM of N-2-hydroxyethylpiperazine-N′-2-ethanesulfonic acid buffer (“HEPES,” pH 7.0), 10 mM CaCl2, 100 μM thiopeptolide substrate, and 1 mM 5,5′-dithio-bis-(2-nitro-benzoic acid) (DTNB). […] The change in absorbance at 405 nm is monitored on a Thermo Max microplate reader (molecular Devices, Menlo Park, Calif.) at room temperature (22° C.). The calculation of the amount of hydrolysis of the thiopeptolide substrate is based on E412=13600 M^−1 cm^−1 for the DTNB-derived product 3-carboxy-4-nitrothiophenoxide. Assays are carried out with and without matrix metalloproteinase inhibitor compounds, and the amount of hydrolysis is compared for a determination of inhibitory activity of the test compounds.
(§3) Test compounds were evaluated at various concentrations in order to determine their respective IC50 values, the micromolar concentration of compound required to cause a 50% inhibition of catalytic activity of the respective enzyme.
(§4) Some representative compounds of Formula I have been evaluated for their ability to inhibit MMP-13, MMP-1FL, MMP-3CD, MMP-7FL, MMP-8FL, MMP-9FL, MMP-12CD, MMP-14CD, and/or MMP-17CD, wherein FL means full-length enzyme and CD means a catalytic domain of the full-length enzyme. Test compounds can be evaluated at various concentrations in order to determine their respective IC50 values, the micromolar concentration of compound required to cause a 50% inhibition of the hydrolytic activity of the respective enzyme.
(§5) Certain compounds of Formula I have also been assayed with MMP-1 full-length, MMP-3 catalytic domain, MMP-7 full-length, MMP-8 full-length, MMP-9 full-length, MMP-12 catalytic domain, MMP-14 catalytic domain, and MMP-17 catalytic domain. […] In Biological Table 2, the compound example numbers for the Compound Examples are indicated in the column labelled “Ex. No.”

MMP-14 catalytic domain = biological target: T2, MMP-14 catalytic domain (Homo sapiens, UniProt P50281); experiment: Thiopeptolide substrate hydrolysis inhibition assay, MMP-14 catalytic domain; type: biochemical; details: read-out: MMP-14CD IC50
T2 construct: MMP-14 catalytic domain, and MMP-17 catalytic domain
From the text: as §1, §2, §3, §4, §5

[1] = Pharmacokinetics in Sprague-Dawley rats (single IV or oral dose); type: in vivo, rat
From the text: For comparison purposes, a reference compound was separately characterized according to its pharmacokinetics properties except AUC in a similar manner. The reference compound (“Reference Compound 1”) was the compound of Example 188 of PCT International Patent Application Publication number WO 02/064572 A1, which is also described in PCT International Patent Application Publication number WO 02/064080 A2 in Table IVb on page 76, 5th species from the top. […] Reference Compound 1 is named 4-[6-(4-methoxy-benzylcarbamoyl)- 1 -methyl-2,4-dioxo- 1,4-dihydro-2H-pyrido[3,4-d]pyrimidin-3-ylmethyl]-benzoic acid, and has the structure drawn below: [drawing 98]

IC50 (MMP-1 full-length): > 100 µM
IC50 (MMP-14 catalytic domain): > 100 µM
clearance ([1]; rat, blood, Sprague-Dawley rats, single 5 mg/kg intravenous dose, read-out: IV CL): 7.1 mL/min/kg
half-life ([1]; rat, blood, Sprague-Dawley rats, single 5 mg/kg intravenous dose, read-out: IV T1/2 (converted)): 2.1 h
PO AUC (ng/hr/mL) ([1]; rats, single 5 mg/kg oral dose): 3,750 ng/hr/mL
SMILES: COc1ccc(CNC(=O)c2cc3c(=O)n(Cc4ccc(C(=O)O)cc4)cnc3cn2)cc1 [Compound Example 1, 4-[6-(4-methoxy-benzylcarbamoyl)-4-oxo-4H-pyrido[3,4-d]pyrimidin-3-ylmethyl]-benzoic acid]
